Reference: paper PMC10296347, “Identification of the Stapled α-Helical Peptide ATSP-7041 as a Substrate and Strong Inhibitor of OATP1B1 In Vitro” (Biomolecules, 2023)

Legend:
[1] = molecular target: P-gp (Homo sapiens, UniProt P08183); experiment: ATP-dependent uptake by inside-out membrane vesicles expressing P-gp; conditions: NMQ 2 μM
[2] = molecular target: T1, BCRP (Homo sapiens, UniProt Q9UNQ0); experiment: ATP-dependent uptake by inside-out membrane vesicles expressing BCRP; conditions: Lucifer yellow 50 μM
T1 sequence (Q9UNQ0 1-655): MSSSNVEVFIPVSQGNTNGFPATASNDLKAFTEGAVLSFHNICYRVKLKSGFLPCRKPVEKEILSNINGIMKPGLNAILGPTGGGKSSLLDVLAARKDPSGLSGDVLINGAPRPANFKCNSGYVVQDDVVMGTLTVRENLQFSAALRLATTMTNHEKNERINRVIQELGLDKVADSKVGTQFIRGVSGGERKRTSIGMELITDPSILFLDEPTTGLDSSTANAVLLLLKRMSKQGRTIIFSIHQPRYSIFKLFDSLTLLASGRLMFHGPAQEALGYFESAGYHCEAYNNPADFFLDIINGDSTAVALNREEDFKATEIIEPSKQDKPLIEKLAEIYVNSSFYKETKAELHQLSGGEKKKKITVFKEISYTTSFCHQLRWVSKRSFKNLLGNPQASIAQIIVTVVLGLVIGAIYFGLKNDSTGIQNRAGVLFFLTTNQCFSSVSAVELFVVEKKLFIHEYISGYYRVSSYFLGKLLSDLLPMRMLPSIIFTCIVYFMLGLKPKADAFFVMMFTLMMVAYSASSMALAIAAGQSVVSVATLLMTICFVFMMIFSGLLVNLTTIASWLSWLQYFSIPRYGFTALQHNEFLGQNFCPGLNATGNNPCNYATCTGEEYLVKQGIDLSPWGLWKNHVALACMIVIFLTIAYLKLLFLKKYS

[3] = molecular target: T2, OATP1B3 (Homo sapiens, UniProt Q9NPD5); experiment: Uptake by OATP1B3-expressing HEK293 cells (substrate evaluation); conditions: E217βG 3 μM, 5 min, 37 °C
T2 sequence (Q9NPD5 1-702): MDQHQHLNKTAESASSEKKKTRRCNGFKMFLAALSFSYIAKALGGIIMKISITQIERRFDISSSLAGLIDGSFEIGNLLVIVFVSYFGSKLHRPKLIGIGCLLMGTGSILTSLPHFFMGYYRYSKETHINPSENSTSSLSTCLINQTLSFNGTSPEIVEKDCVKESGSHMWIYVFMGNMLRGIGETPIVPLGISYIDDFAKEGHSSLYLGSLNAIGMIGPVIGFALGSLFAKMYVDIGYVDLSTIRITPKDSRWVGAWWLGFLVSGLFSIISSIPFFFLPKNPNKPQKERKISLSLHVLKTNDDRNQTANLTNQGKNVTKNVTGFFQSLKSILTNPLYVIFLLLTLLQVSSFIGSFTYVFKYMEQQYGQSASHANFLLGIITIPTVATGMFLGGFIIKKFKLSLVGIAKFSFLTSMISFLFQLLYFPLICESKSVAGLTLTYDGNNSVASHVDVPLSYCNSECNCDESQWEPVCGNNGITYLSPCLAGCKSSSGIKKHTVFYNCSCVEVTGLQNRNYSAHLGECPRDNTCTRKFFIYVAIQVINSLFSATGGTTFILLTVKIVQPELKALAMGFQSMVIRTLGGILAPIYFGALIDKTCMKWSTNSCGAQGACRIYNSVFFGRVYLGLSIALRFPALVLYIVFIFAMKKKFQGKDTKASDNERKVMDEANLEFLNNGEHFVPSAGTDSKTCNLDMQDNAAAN
Description: after the time course assessment (0, 5, 10, 20, 30, 40, and 60 min). Similarly, the inhibitory […]
measuring testosterone and 6β-hydroxytestosterone at 90 min, after the time course assessment (0, 10, 20, 40, 60, 90, and 120 min). Other human liver S9 (B, C, and D) fractions were also used to evaluate vendor differences. Midazolam, 1ʹ-hydroxymidazolam, testosterone, and 6β-hydroxytestosterone were detected using LC/MS.
4. Evaluation of ATSP-7041 as a substrate of transporters
The evaluation of ATSP-7041 as a substrate for OATP1B1 and OATP1B3 transporters was performed using OATP1B-expressing HEK293 cells in 24-well plates according to the manufacturer’s protocol (v1.9 for OATP1B1 and v2.0 for OATP1B3) with minor modifications.
In brief, after equilibration with the transport buffer, the buffer was replaced with a fresh transport buffer containing ATSP-7041 (0.2 μM) or E217βG (1 μM for OATP1B1 or 3 μM for OATP1B3). After incubation for 5 min at 37 °C, the cells were immediately rinsed twice with ice-cold transport buffer. Substrates were extracted by incubation with 400 μL of 0.1% formic acid in acetonitrile containing IS (0.0125 μM benzyl-ATSP-7041 and 0.1 μM estradiol-3β-glucuronide) for 5 min at 20-25 °C, filtered using a PVDF-based filter, diluted 1.4 times (ATSP-7041) or 2 times (E217βG) with water, and analyzed by LC/MS. […]

[4] = molecular target: T3, OATP1B1 (Homo sapiens, UniProt Q9Y6L6); experiment: Uptake by OATP1B1-expressing HEK293 cells (substrate evaluation); conditions: E217βG 1 μM, 5 min, 37 °C
T3 sequence (Q9Y6L6 1-691): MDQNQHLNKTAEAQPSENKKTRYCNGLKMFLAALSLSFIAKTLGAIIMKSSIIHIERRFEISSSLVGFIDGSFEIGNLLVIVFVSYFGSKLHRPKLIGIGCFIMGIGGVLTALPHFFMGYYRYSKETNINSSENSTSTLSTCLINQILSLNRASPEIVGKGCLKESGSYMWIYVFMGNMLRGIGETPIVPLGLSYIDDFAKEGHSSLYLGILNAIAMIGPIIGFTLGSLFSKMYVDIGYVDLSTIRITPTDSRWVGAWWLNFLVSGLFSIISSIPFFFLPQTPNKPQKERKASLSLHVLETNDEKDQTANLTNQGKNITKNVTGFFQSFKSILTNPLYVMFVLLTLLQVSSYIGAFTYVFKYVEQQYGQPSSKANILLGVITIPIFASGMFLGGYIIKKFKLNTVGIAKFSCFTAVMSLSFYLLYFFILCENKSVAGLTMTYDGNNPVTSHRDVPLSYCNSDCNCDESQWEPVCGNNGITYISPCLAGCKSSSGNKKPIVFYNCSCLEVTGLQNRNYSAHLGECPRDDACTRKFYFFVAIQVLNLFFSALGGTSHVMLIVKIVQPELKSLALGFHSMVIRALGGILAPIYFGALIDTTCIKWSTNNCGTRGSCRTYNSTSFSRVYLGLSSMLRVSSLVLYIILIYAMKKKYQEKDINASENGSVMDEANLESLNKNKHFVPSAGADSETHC
Description: (§1) The evaluation of ATSP-7041 as a substrate for OATP1B1 was performed using OATP1B1-expressing HEK293 cells in 24- or 96-well plates according to the manufacturer’s protocol (v1.9 for OATP1B1) with minor modifications. In brief, after equilibration with the transport buffer, the buffer was replaced with a fresh transport buffer containing the indicated concentrations of ATSP-7041 or 1 μM E217βG in the presence or absence of positive control inhibitors (50 μM rifampicin or 10 μM cyclosporine). After incubation for the indicated time at 37 °C, the cells were immediately rinsed twice with an ice-cold transport buffer. Substrates were extracted by incubation with 400 μL (for 24-well) or 100 μL (for 96-well) of 0.1% formic acid in acetonitrile-containing internal standard (IS) (0.125 μM benzyl-ATSP-7041 for ATSP-7041 in uptake experiment of various concentrations of ATSP-7041 or 0.0125 μM for ATSP-7041 in all other experiments of benzyl-ATSP-7041 and 0.1 μM estradiol-3β-glucuronide) for 5 min at 20–25 °C, filtered using a PVDF-based filter, diluted 1.4 times (ATSP-7041) or 2 times (E217βG) with water, and analyzed using LC/MS.
LC/MS analysis data were quantified using Trace Finder 4.1 (Thermo Fisher Scientific, Waltham, MA, USA) for peak detection and area quantification. […] Differences in all figures were analyzed and all data were plotted using GraphPad Prism 9 (GraphPad Software). […]

[5] = molecular target: T3, OATP1B1
Description: as §1

[6] = molecular target: T3, OATP1B1; remark: listed apart in the source
Description: The inhibitory activities of ATSP-7041 on OATP1B1 were evaluated using OATP1B-expressing HEK293 cells in 96-well plates as described above. For dose-dependent inhibition, ATSP-7041 at the indicated concentrations was added to the transport buffer, and E217βG was used as the substrate. To study the pre-incubation effect, the cells were pre-incubated with 10 μM ATSP-7041 or 10 μM cyclosporine in transport buffer after equilibration with the transport buffer for 30 min at 37 °C and washed twice before the replacement of the transport buffer containing E217βG.
LC/MS analysis data were quantified using Trace Finder 4.1 (Thermo Fisher Scientific, Waltham, MA, USA) for peak detection and area quantification. To study the transport activities of OATP1B1, the OATP1B1-mediated uptake of ATSP-7041 and E217βG was determined by normalization with IS (divide the area of ion peak) and subsequent background-corrected uptake using mock cells. To evaluate the inhibitory activities of ATSP-7041 on OATP1B1, transporter activities were determined as a percent of the control (activities without ATSP-7041) at each concentration, and the half maximal inhibitory concentration (IC50) for the inhibition of OATP1B1 activity by ATSP-7041 was determined by fitting a curve (inhibitor concentrations vs. normalized response) using GraphPad Prism 8 (GraphPad Software, San Diego, CA, USA). […]

[7] = in vitro; conditions: human, s9, pH 7.4

Sequence of P-gp (P08183 whole entry): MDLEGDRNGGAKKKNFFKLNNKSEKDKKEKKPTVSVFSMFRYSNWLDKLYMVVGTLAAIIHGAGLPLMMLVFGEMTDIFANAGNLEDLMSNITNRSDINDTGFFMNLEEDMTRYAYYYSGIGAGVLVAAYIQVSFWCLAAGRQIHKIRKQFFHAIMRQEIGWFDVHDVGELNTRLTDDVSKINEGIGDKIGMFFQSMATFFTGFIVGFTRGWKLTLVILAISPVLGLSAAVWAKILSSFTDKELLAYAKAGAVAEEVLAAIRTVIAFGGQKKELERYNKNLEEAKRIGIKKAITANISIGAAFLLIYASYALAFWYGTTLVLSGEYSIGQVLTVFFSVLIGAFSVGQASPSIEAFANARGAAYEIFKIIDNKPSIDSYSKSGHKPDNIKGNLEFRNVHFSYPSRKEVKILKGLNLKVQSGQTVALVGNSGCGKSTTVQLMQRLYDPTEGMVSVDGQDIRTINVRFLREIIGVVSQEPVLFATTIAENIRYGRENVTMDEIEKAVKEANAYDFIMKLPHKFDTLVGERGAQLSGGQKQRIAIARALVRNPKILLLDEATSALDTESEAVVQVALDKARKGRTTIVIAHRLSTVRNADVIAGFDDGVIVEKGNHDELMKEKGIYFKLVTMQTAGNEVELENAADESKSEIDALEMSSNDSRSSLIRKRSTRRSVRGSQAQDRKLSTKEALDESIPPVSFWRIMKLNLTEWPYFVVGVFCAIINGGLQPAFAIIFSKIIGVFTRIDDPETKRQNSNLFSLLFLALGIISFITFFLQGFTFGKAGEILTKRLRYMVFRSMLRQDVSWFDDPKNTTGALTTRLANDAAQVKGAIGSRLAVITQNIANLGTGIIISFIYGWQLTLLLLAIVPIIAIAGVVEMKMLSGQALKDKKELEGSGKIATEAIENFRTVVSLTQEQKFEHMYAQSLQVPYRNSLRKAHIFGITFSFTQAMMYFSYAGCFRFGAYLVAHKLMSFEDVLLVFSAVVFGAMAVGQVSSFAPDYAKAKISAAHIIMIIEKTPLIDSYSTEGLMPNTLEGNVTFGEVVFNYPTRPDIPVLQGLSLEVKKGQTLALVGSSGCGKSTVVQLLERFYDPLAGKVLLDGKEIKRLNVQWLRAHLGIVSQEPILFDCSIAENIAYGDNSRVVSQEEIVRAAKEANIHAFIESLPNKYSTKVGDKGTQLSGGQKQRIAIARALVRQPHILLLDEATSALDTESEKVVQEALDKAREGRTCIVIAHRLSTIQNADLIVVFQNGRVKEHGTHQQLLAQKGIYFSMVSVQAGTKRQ

C=C[C@H]1C[N+]2(C)CC[C@H]1C[C@@H]2[C@@H](O)c1ccnc2ccc(OC)cc12 [NMQ, N-methyl-quinidine]
ATP-dependent uptake of positive control substrate by P-gp compared to mock vesicles [1]: clearly observed

Lucifer yellow
ATP-dependent uptake of positive control substrate by BCRP compared to mock vesicles [2]: clearly observed

C[C@]12CC[C@@H]3c4ccc(O)cc4CC[C@H]3[C@@H]1CC[C@@H]2O[C@@H]1O[C@H](C(=O)O)[C@@H](O)[C@H](O)[C@H]1O [E217βG, Estradiol-17β-glucuronide]
uptake of control substrate in OATP1B3-transfected HEK293 cells relative to mock cells [3]: ~137 fold
uptake of control substrate in OATP1B1-transfected HEK293 cells relative to mock cells [4]: approximately 611 fold

CO[C@H]1/C=C/O[C@@]2(C)Oc3c(C)c(O)c4c(O)c(c(/C=N/N5CCN(C)CC5)c(O)c4c3C2=O)NC(=O)/C(C)=C\C=C\[C@H](C)[C@H](O)[C@@H](C)[C@@H](O)[C@@H](C)[C@H](OC(C)=O)[C@@H]1C [rifampicin]
uptake of control substrate E217βG by OATP1B1-expressing HEK293 cells with inhibitor, % of without inhibitor ([5]; rifampicin 50 μM, E217βG 1 μM, 5 min co-incubation): < 4%
effect of index inhibitors on OATP1B1-dependent uptake of ATSP-7041 ([5]; substrate ATSP-7041 0.2 μM, rifampicin 50 μM or cyclosporine 10 μM, 5 and 60 min, 37 °C): significantly inhibited

CC(=O)N[C@@H](CC(C)C)C(=O)N[C@H](C(=O)N[C@@H](Cc1ccccc1)C(=O)N[C@]1(C)CCCCCCC=CCCC[C@@](C)(C(=O)N[C@@H](CO)C(=O)N[C@@H](C)C(=O)N[C@@H](C)C(N)=O)NC(=O)[C@H](CC2CCC2)NC(=O)[C@H](CCC(N)=O)NC(=O)[C@H](C)NC(=O)[C@H](Cc2c[nH]c3ccccc23)NC(=O)[C@H](Cc2ccc(O)cc2)NC(=O)[C@H](CCC(=O)O)NC1=O)[C@@H](C)O [ATSP-7041]
IC50 [6]: 810 nM
inhibition at 10 µM [6]: > 96%
remaining at 24 h, 0.5 μM [7]: 91.6%
